# “Also recorded” adds a separate entry of the source.
# Key:
# Nk3R = molecular target: T1, Nk3R (Mus musculus, UniProt P47937); assay: Tone fear conditioning test (freezing to conditioned tone), osanetant; assay type: in vivo; parameters: from tissue; host or cells: Living mice (wild-type C57Bl6/N males, Charles River); conditions: osanetant daily during two-week isolation, tested off-drug
# T1 sequence (P47937 1-452): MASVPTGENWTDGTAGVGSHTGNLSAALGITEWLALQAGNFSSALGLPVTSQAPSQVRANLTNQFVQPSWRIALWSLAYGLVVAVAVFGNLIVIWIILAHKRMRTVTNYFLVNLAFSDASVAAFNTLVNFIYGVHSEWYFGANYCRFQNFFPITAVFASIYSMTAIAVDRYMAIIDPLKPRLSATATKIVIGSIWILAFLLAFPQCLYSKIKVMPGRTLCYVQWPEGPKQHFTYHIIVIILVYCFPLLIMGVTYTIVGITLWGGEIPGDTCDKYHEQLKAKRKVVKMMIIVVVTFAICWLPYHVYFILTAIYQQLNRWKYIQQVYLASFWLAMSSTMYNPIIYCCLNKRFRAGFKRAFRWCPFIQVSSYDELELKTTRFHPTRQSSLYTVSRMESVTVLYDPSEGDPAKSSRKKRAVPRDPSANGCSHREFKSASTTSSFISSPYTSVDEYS
# [1] = Spooren et al., 2005; cited from earlier work
# [2] = molecular target: T2, hM4DREADD in Tac2+ neurons (Homo sapiens, UniProt P08173, A203G/Y113C); assay: Tone fear test, CNO silencing of Tac2+ neurons (hM4DREADD); assay type: in vivo, mouse
# T2 construct: host or cells: Tac2+ neurons of Tac2-Cre mice (dBNSTa, DMH or CeA), transduced in vivo with AAV2-EF1a-DIO-hM4D-mCherry
# T2 sequence (P08173 1-479 Y113C/A203G): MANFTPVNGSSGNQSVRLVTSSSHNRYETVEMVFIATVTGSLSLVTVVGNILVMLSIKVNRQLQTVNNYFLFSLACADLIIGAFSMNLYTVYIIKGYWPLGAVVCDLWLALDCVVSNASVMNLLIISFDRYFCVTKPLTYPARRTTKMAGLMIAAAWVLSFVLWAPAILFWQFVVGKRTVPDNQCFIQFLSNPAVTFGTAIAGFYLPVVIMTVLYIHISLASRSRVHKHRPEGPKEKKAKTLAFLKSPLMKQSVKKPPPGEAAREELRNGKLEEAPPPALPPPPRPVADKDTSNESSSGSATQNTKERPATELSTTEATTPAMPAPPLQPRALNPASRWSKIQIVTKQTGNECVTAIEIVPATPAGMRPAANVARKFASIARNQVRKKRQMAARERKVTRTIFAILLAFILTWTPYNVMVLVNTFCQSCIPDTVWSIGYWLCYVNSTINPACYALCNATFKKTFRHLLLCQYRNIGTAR
# Method: The protocol for tone trace fear conditioning was performed as previously described (Cushman et al., 2014; incorporated by reference in its entirety) using fear conditioning boxes previously described in detail (Haubensak et al., 2010; Kunwar et al., 2015; incorporated by reference in their entirety). Briefly, mice were transported in squads of four on a white cart to a novel behavioral testing room containing 4 sound-attenuating fear-conditioning chambers (Med Associates). This “training context” was comprised of flat grid flooring (wired to a shock generator and scrambler for footshock delivery, Med Associates), houselights, and the presence of an internal fan for background noise. Chambers were sprayed with 70% Simple Green solution on the underlying chamber pan to generate a unique contextual scent and chambers were cleaned with 70% EtOH between squads. Trace fear conditioning consisted of a 3 minute baseline period followed by 3 tone-shock trials consisting of a 20 second tone conditional stimulus (CS; 75 dB, 2800 Hz), a 20 second trace interval and a 2 second footshock unconditional stimulus (US; 0.7 mA). The inter-trial interval (ITI) between trials was 60 seconds. Mice remained in the chambers an additional 60 seconds before being transported back to the vivarium. The following day, mice were transported in fresh cardboard boxes to a novel behavioral testing room consisting of 4 distinct fear-conditioning boxes to test for tone fear. […] Freezing behavior during the baseline period as well as during each tone presentation (“during”) and trace interval (“post”) were assessed as previously described (Zelikowsky et al., 2014; incorporated by reference in its entirety) using automated near-infrared video tracking equipment and computer software (VideoFreeze, Med Associates). Shock reactivity (motion, arbitrary units) was measured during the 2 second shock US as well as the 3 seconds immediately following. […]
SMILES,persistent freezing to fear conditioned tone (Nk3R),blood-brain barrier passage [1],"acute (during) freezing to conditioned tone ([2]; SIS Tac2-Cre mice, hM4DREADD in CeA, CNO 5 mg/kg i.p.)","persistent (post) freezing to conditioned tone ([2]; SIS Tac2-Cre mice, hM4DREADD in dBNSTa, CNO 5 mg/kg i.p.)","tone fear test freezing in mCherry control virus mice ([2]; SIS mice, AAV2-EF1a-DIO-mCherry control virus in dBNSTa (no hM4DREADD), CNO vs vehicle)"
"CC(=O)N(C)C1(c2ccccc2)CCN(CCC[C@]2(c3ccc(Cl)c(Cl)c3)CCCN(C(=O)c3ccccc3)C2)CC1 [osanetant, N-(1-{3-[(3R)-1-benzoyl-3-(3,4-dichlorophenyl)piperidin-3-yl]propyl}-4-phenylpiperidin-4-yl)-N-methylacetamide]",prevented,crosses the blood-brain barrier,,,
"C[N+]1([O-])CCN(C2=Nc3cc(Cl)ccc3Nc3ccccc32)CC1 [CNO, clozapine-N-oxide]",,,blocked; also recorded: suppressed,blocked; also recorded: selectively attenuated,had no effect; also recorded: did not observe any effects; also recorded: no significant effects
